Patent EP4755892A1, “KINESIN KIF18A INHIBITOR AND USE THEREOF” (Shanghai Apeiron Therapeutics Company Limited, priority 2023, dated 2025)
Read-outs that look alike come from different tables or passages of the source.

Legend:
OVCAR3 cells = experiment: Cell Proliferation Activity Test (CyQUANT Direct), OVCAR3; assay type: cell-based; conditions: compound 0-10 µM, 3 days, 0.2% DMSO, CyQUANT fluorescence, read-out: OVCAR-3 _IC50_nM
Method: Assay 2: Cell Proliferation Activity Test
Materials and Cells: OVCAR3 cells were purchased from Nanjing Cobioer Biosciences Co., Ltd. RPMI-1640 medium, fetal bovine serum, and the CyQUANT Direct Cell Proliferation Assay kit were purchased from Thermo Fisher Scientific, USA; 96-well cell culture plates were sourced from Coming, USA.
Cell Culture: OVCAR3 cells were cultured with RPMI-1640 medium containing 10% fetal bovine serum and incubated in a 5% CO2 incubator at 37°C. Only cells in the logarithmic growth phase could be used for the test.
Cell Proliferation Activity Test:
OVCAR3 cells were inoculated into a 96-well cell culture plate at 90 µL per well and incubated overnight in a 5% CO2 incubator at 37°C. The compound powder was dissolved in DMSO to prepare a stock solution of 10 mM. Then gradient dilution was performed for the compounds in the microplate to achieve a final concentration of 0-10 µM. 10 µL of cell culture medium containing compounds was added to each well to make the final DMSO content 0.2%. The cell plates were incubated in a 5% CO2 incubator at 37°C for 3 days. 100 µL of CyQUANT detection reagent was added to each well, reacted at 37°C for 60 min, and fluorescence detection was performed using the PerkinElmer Envision.

[1] = target: T1, Human KIF18A (amino acid sequence 1-417) (Homo sapiens, UniProt Q8NI77); experiment: Enzymatic Activity Test (ADP-Glo, microtubule-stimulated KIF18A ATPase); assay type: biochemical; conditions: 60 µg/mL microtubules, 25 µM ATP, 2.5 nM KIF18A protein, 120 min at ambient temperature, chemiluminescence; read-out: KIF 18A IC50
T1 construct: purchased Viva Biotech (Shanghai) Ltd
T1 sequence (Q8NI77 1-417): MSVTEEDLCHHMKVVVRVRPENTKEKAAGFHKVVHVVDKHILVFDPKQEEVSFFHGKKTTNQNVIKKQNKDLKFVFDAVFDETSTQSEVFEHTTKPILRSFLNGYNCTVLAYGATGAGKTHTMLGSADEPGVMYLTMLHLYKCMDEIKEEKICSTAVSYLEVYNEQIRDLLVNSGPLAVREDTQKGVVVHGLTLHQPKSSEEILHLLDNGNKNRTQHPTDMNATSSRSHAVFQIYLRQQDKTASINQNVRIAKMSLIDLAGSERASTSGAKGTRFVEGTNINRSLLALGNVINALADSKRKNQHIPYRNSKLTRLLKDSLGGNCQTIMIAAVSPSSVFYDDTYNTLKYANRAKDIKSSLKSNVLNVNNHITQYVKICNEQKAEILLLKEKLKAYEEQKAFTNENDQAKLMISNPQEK
Method: Assay 1: Enzymatic Activity Test
Materials: Human KIF18A (amino acid sequence 1-417) was purchased from Viva Biotech (Shanghai) Ltd.; the ADP-Glo™ protein kinase kit was acquired from Promega, USA; tubulin was sourced from Cytoskeleton, USA; and the 384-well assay plate and Envision multifunctional microplate reader were obtained from PerkinElmer, USA.
Enzymatic Activity Test: The compound powder was dissolved in DMSO to prepare a stock solution of 10 mM. Then gradient dilution was performed for the compounds in the microplate to achieve a final concentration of 0-10 µM. Then, 2.5 µL each of tubulin, compound, ATP, and KIF18A protein were added to the microplate in sequence for reaction at ambient temperature for 120 min. The final concentrations in the enzyme reaction were 60 µg/mL for microtubules, 25 µM for ATP, and 2.5 nM for KIF18A protein. After the enzyme reaction, 10 µL of ADP-GLO reaction reagent was added to each well and incubated at room temperature for 30 min. After that, 20 µL of detection reagent was added to each well and incubated at room temperature for 30 min in the dark. Finally, chemiluminescence detection was performed using the PerkinElmer Envision.

HT29 cells = experiment: CyQuant Cell Proliferation Activity Test, HT29; assay type: cell-based; conditions: HT29 cells 2000 per well, initial concentration 3000 nM, 3-fold dilution, 3 days, 0.2% DMSO, read-out: HT29_IC50 _nM
Method: Assay 3: CyQuant Cell Proliferation Activity Test
Materials and Cells: HT29 cells were purchased from Nanjing Cobioer Biosciences Co., Ltd.; RPMI-1640 medium, fetal bovine serum, Trypsin-EDTA (0.25%), 96-well plates, and CyQuant reagents were purchased from ThermoFisher (USA); DMSO was purchased from SIGMA (USA).
Cell Culture: HT29 cells were cultured with RPMI-1640 containing 10% fetal bovine serum under the condition of 37°C and 5% CO2. Only cells in the logarithmic growth phase could be used for the test.
Cell Proliferation Activity Test: CyQuant reagent was used to detect the proliferation inhibitory activity of compounds on HT29 cells. The cell density was adjusted, and 100 µL per well was inoculated into a 96-well plate (HT29 at 2000 cells per well), then incubated overnight at 37°C and 5% CO2. Add compounds of various target concentrations (initial concentration of 3000 nM, 3-fold dilution, 9 concentration gradients), and make the DMSO content 0.2%. The cell plate was incubated at 37°C in 5% CO2 for 3 days. CyQuant reagent was added and incubated for 1 h. The plates were read by Envision, and IC50 was calculated using XLFIT.

| Structure (SMILES) | IC50 (OVCAR3 cells; Homo sapiens, OVCAR-3, 72 h) [nM] | IC50 [1] [nM] | IC50 (OVCAR3 cells) [nM] | IC50 (HT29 cells) [nM] | IC50 (HT29 cells; Homo sapiens, HT-29, 72 h) [nM] |
| --- | --- | --- | --- | --- | --- |
| Cc1cc2nc(n1)N1CCCC(C=CC3CCCN(C3)c3cc(NS(=O)(=O)CCO)ccc3C(=O)N2)C1 (stereo not shown) [Example 8, (Z)-2-hydroxy-N-(1^6-methyl-7-oxo-8-aza-1(2,4)-pyrimidin-2(1,3),5(3,1)-dipiperidin-6(1,2)-benzeneheterocyclooct-3-en-6^5-yl)ethane-1-sulfonamide] | > 3000 | 2300 |  |  |  |
| Cc1cc2nc(n1)N1CCC(F)(F)C(C=CCC3CCN(CC3)c3cc(NS(=O)(=O)CCO)ccc3C(=O)N2)C1 (stereo not shown) [Example 18C, N-((1^3S,Z)-1^4,1^4-difluoro-2^6-methyl-4-oxo-3-aza-2(2,4)-pyrimidin-1(1,3),6(1,4)-dipiperidin-5(1,2)-benzeneheterocyclononane-8-en-5^4-yl)-2-hydroxyethane-1-sulfonamide] |  | 41 | 29 | 31 |  |
| O=C1Nc2cccc(c2)S(=O)(=O)N2CCN(CCC3CCN(CC3)c3cc(NS(=O)(=O)CCO)ccc31)CC2 [Example 17, N-(6,6-dioxo-9-oxo-6-thia-8-aza-5(1,4)-piperazin-2(1,4)-piperidin-1(1,2),7(1,3)-diphenylheterocyclononane-1^3-yl)-2-hydroxyethane-1-sulfonamide] | > 3000 | 605 |  |  | > 3000 |
| Cc1cc2nc(n1)OCCOCCC1CCN(CC1)c1cc(NS(=O)(=O)CCO)ccc1C(=O)N2 [Example 29, 2-Hydroxy-N-(5^6-methyl-3-oxo-6,9-dioxa-4-aza-5(4,2)-pyrimidin-1(1,4)-piperidin-2(1,2)-benzeneheterocycloundecane-2^5)ethane-1-sulfonamide] |  | 141 |  |  |  |
| Cc1cc2nc(n1)N1CCCC(C=CC3CCN(CC3)c3cc(NS(=O)(=O)CCO)ccc3C(=O)N2)C1 (stereo not shown) [Example 4, 2-Hydroxy-N-(1^1-methyl-7-oxo-8-aza-1(2,4)-pyrimidin-2(1,3),5(4,1)-dipiperidin-6 (1,2)-benzeneheterocyclooct-3-en-6^5-yl)ethane-1-sulfonamide] | 1660 | 736 |  |  | > 3000 |
| Cc1cc2nc(n1)N1CCC(F)(F)C(CCC=C3CCN(CC3)c3cc(NS(=O)(=O)CCO)ccc3C(=O)N2)C1 (stereo not shown) [Example 20, N-(1^4,1^4-difluoro-2^6-methyl-4-oxo-3-aza-2(2,4)-pyrimidin-1(1,3),6(1,4)-dipiperidin-5(1,2)-benzeneheterocyclononane-5^4-yl)-2-hydroxyethane-1-sulfonamide] | > 3000 | 2920 |  |  | > 3000 |
| Cc1cc2nc(n1)N1CCCC(C=CCCC3CCN(CC3)c3cc(NS(=O)(=O)CCO)ccc3C(=O)N2)C1 (stereo not shown) [Example 6, 2-Hydroxy-N-(2^1-methyl-4-oxo-3-aza-2(2,4)-pyrimidin-1(1,3),6(1,4)-dipiperidin-5 (1,2)-benzenecyclodec-9-en-5^4-yl)ethane-1-sulfonamide] | 52 | 89 |  |  | 64 |
| Cc1cc2nc(n1)N1CCC(F)(F)C(C=CCC3CCN(CC3)c3cc(NS(=O)(=O)CCO)ccc3C(=O)N2)C1 (stereo not shown) [Example 18, N-(1^4,1^4-difluoro-2^6-methyl-4-oxo-3-aza-2(2,4)-pyrimidin-1(1,3),6(1,4)-dipiperidin-5(1,2)-benzeneheterocyclonon-8-en-5^4-yl)-2-hydroxyethane-1-sulfonamide] |  | 94 | 31 | 34 |  |
| Cc1cc2nc(n1)N1CCCC(CCCC3CCCN(C3)c3cc(NS(=O)(=O)CCO)ccc3C(=O)N2)C1 (stereo not shown) [Example 11, 2-Hydroxy-N-(2^6-methyl-4-oxo-3-aza-2(2,4)-pyrimidin-1,6(1,3)-dipiperidin-5(1,2) -benzoylcyclononyl-5^4-yl)ethane-1-sulfonamide] | 150 | 233 |  |  |  |
| Cc1cc2nc(n1)N1CCCC(C=CCC3CCN(CC3)c3cc(NS(=O)(=O)CCO)ccc3C(=O)N2)C1 (stereo not shown) [Example 1B, 2-Hydroxy-N-((1^3R,E)-2^6-methyl-4-oxo-3-aza-2(2,4)-pyrimidin-1(1,3),6(1,4)-dipiperidin-5(1,2)-benzoaza-8-en-5^4-yl)ethane-1-sulfonamide] |  | 34 | 6 | 7 |  |
| Cc1cc2nc(n1)N1CCCC(C1)C(=O)NCC1CCN(CC1)c1cc(NS(=O)(=O)CCO)ccc1C(=O)N2 (stereo not shown) [Example 27, N-(2^6-methyl-4,9-dioxo-3,8-diaza-2(2,4)-pyrimidin-1(1,3),6(1,4)-dipiperidin-5(1,2) -benzeneheterocyclononane-5^4-yl)-2-hydroxyethane-1-sulfonamide] | 1480 | 265 |  |  | > 3000 |
| Cc1cc2nc(n1)N1CCCC(COCC3CCN(CC3)c3cc(NS(=O)(=O)CCO)ccc3C(=O)N2)C1 (stereo not shown) [Example 28, 2-Hydroxy-N-(2^6-methyl-4-oxo-8-oxa-3-aza-2(2,4)-pyrimidin-1(1,3),6(1,4)-dipiperidin-5(1,2)-benzeneheterocyclononane-5^4-yl)ethane-1-sulfonamide] | 506 | 229 |  |  | 639 |
| Cc1cc2nc(n1)N1CCCC(COCC3CCN(CC3)c3cc(NS(=O)(=O)CCO)ccc3C(=O)N2)C1 (stereo not shown) [Example 28B, 2-Hydroxy-N-((1^3S)-2^6-methyl-4-oxo-8-oxa-3-aza-2(2,4)-pyrimidin-1(1,3),6(1,4)-dipiperidin-5(1,2)-benzeneheterocyclononane-5^4-yl)ethane-1-sulfonamide] |  | 743 |  |  |  |
| Cc1cc2nc(n1)N1CCCC(COCC3CCN(CC3)c3cc(NS(=O)(=O)CCO)ccc3C(=O)N2)C1 (stereo not shown) [Example 28A, 2-Hydroxy-N-((1^3R)-2^6-methyl-4-oxo-8-oxa-3-aza-2(2,4)-pyrimidin-1(1,3),6(1,4)-dipiperidin-5(1,2)-benzeneheterocyclononane-5^4-yl)ethane-1-sulfonamide] |  | 178 |  |  |  |
| Cc1cc2nc(n1)N1CCOC(CCCC3CCN(CC3)c3cc(NS(=O)(=O)CCO)ccc3C(=O)N2)C1 (stereo not shown) [Example 26, 2-Hydroxy-N-((1^2S)-2^6-methyl-4-oxo-3-aza-1(4,2)-morpholin-2(2,4)-pyrimidin-6(1,4)-piperidin-5(1,2)-benzeneheterocyclononane-5^4-yl)ethane-1-sulfonamide] |  | 15 |  |  |  |
| Cc1cc2nc(n1)N1CCCC(CCC3CCCN(C3)c3cc(NS(=O)(=O)CCO)ccc3C(=O)N2)C1 (stereo not shown) [Example 9, 2-Hydroxy-N-(1^6-methyl-7-oxo-8-aza-1(2,4)-pyrimidin-2(1,3),5(3,1)-dipiperidin-6 (1,2)-benzeneheterocyclooctan-6^5-yl)ethane-1-sulfonamide] | 548 | 293 |  |  |  |
